Here are results for six compounds from patent publication US5442053A, “Salts and mixtures of hyaluronic acid with pharmaceutically active substances, pharmaceutical compositions containing the same and methods for administration of such compositions” (Fidia, S.p.A., priority 1983, dated 1995).

One experiment has as its system staphylococcus aureus. Briefly: Recovery from dry inflammation in rabbit eye, staphylococcus aureus. The class given is in vivo. On the procedure: (§1) Studies were carried out with hyaluronic acid salts of the antibiotics: streptomycin, erythromycin, neomycin and gentamicin. The salts utilized are the total salts in which all of the acid groups of hyaluronic acid are salified with a basic group of the antibiotic and prepared according to the procedures described hereinabove in Examples 1, 2, 4 and 5.
(§2) For administration, preparations were utilized comprising solutions of the HY drug complex in distilled water, having concentrations suitable to the antibiotic content:
(§3) The activity of the above HY salts was compared to that given by the same antibiotics dissolved in phosphate buffer and having the same concentrations of antibiotic. The activity of the two groups of products was measured on the basis of the time necessary to suppress a dry inflammation of the rabbit eye induced by a bacterial agent.
(§4) More precisely, the dry inflammation was determined in both eyes of 24 rabbits by intraocular injection of the titered suspension of one of the following bacterial groups: pseudomonas aeruginosa, staphylococcus aureus, salmonella typhi (0.1 ml). The various saline derivatives of the antibiotics were administered (3 drops every 6 hours) into the right eye (RE) of the rabbits, while into the left eye (LE) were instilled the corresponding quantities of the antibiotics dissolved in phosphate buffer. The treatment was begun immediately after injectin of the bacterial suspension and was continued until inflammation disappeared.
(§5) In particular the following were examined: the state of the conjuntiva and the corneal epithelium, anterior chamber (presence of the Tyndall effect), the state of the iris of the posterior segment of the eye. The state of the back of the eye was examined with a Goldman lens. The presence of signs of inflammation (hyperemia, exudates, cloudiness of the liquids etc.) was registered.

Experiment [1] has as its system Bacillus subtillis ATCC 6633. Briefly: Antimicrobial activity of streptomycin sulphate vehicled in hyaluronic acid, agar diffusion. It is filed as cell-based, Bacillus subtilis. On the procedure:
A solution of the two components (60 g hyaluronic acid sodium salt and 40 g streptomycin sulphate) was prepared and then freeze-dried.
The antimicrobial activity of the formulation of streptomycin in hyaluronic acid sodium salt, HYALASTINE fraction, was controlled by microbial assay by agar diffusion, based on the reading after a suitable period of incubation at 32° C., and on a comparison of the diameters of the microorganism's inhibition zones (Bacillus subtillis ATCC 6633) determined on the presumed concentrations of the antibiotic under examination and on the corresponding and known concentrations of the working standard.
After 18 hours of incubation of the assay plate at 32° C., it was observed that streptomycin vehicled in
The results (Table 11) were obtained by measuring the diameter of microbial inhibition zones at working concentrations of 20 and 5 UI/ml, and expressed in units of antimicrobial activity per miligram of the mixture compared to streptomycin sulphate.

A further experiment deals with pseudomonas aeruginosa. Kind of experiment: Recovery from dry inflammation in rabbit eye, pseudomonas aeruginosa. It is filed as in vivo. On the procedure: as §1, §2, §3, §4, §5
For another experiment, the system named is rabbit eye. Briefly: Anti-inflammatory activity of triamcinolone vehicled in hyaluronic acid, dextran-induced intraocular inflammation. The class given is in vivo, rabbit (male New Zealand). Conditions: for Evaluated Score, Conjunctiva / Evaluated Score, Cornea / Evaluated Score, Iris / Evaluated Score, Tyndall: score 0 to 3. As to the method: The experiments were carried out on male New Zealand rabbits (average weight 1.6 kg). After an adaption period of 5 days, introocular inflammation was induced in the rabbits by intraocular injection of dextran (10%, 0.1 ml). The administration was effected in both eyes under local anaesthetic with 4% Novesina, inserting the needle of the syringe at the edge of the cornea in the anterior chamber at a distance of 2 mm. The test was conducted on 10 animals.
Treatment was effected in each animal both in the right and left eyes, by instillation of 3 drops 3 times a day for 6 days in all, of the following:
a solution of triamcinolone (10% in saline) in the left eye (LE);
a solution of hyaluronic acid sodium salt, HYALECTIN fraction, (10 mg/ml)+triamcinolone phosphate (10%) in the right eye (RE).
The anti-inflammatory effect on the reaction induced by dextran was evaluated by observing the eye with a slit lamp at the following intervals: 0, 1 hr, 3 hr, 24 hr, 48 hr, 3 days, 4 days, 5 days and 6 days.
At the intervals, the eye examination evaluated the following observations:
the state of the cornea and conjunctiva for the possible presence of hypermia, edema, and especially observation of the iris which is normally sensitive to inflammatory processes after injection of inflammatory agents into the anterior chamber;
the Tyndall effect, in which the presence of opacity of varying intensity ("nubecula") is indicative of the presence of corpuscular (inflammatory) elements in the anterior chamber.
The result of the observation was expressed in terms of subjective scoring (from 0 to 3) related to the gradualness of the effect noted.

The next experiment relates to salmonella typhi. Kind of experiment: Recovery from dry inflammation in rabbit eye, salmonella typhi. It is filed as in vivo. On the procedure:
as §1, §2, §3, §4, §5

[2] abbreviates: day 1, pseudomonas aeruginosa, 3 drops every 6 hours, 6 eyes.

Turning to `CC[C@H]1OC(=O)[C@H](C)[C@@H](O[C@H]2C[C@@](C)(OC)[C@@H](O)[C@H](C)O2)[C@H](C)[C@@H](O[C@@H]2O[C@H](C)C[C@H](N(C)C)[C@H]2O)[C@](C)(O)C[C@@H](C)C(=O)[C@H](C)[C@@H](O)[C@]1(C)O` [Erthromycin, erythromycin], the “percentage of eyes which did not present any signs of inflammation” value turned out to be 0.0% in the experiment with staphylococcus aureus (day 1, staphylococcus aureus, 3 drops every 6 hours, 6 eyes); 0.0% with staphylococcus aureus (day 2, staphylococcus aureus); 0.0% with staphylococcus aureus (day 3, staphylococcus aureus); 0.0% in the experiment on staphylococcus aureus (day 4, staphylococcus aureus); 0.0% in the experiment on staphylococcus aureus (day 5, staphylococcus aureus); 0.0% in the experiment with staphylococcus aureus (day 6, staphylococcus aureus). Moreover, the “percentage of eyes which did not present any signs of inflammation” value with staphylococcus aureus (day 7, staphylococcus aureus) turned out to be 16.6%; with staphylococcus aureus (day 8, staphylococcus aureus), 33.3%.
With `[H]/N=C(/N)N[C@H]1[C@H](O)[C@@H](O)[C@H](O[C@@H]2O[C@@H](C)[C@](O)(C=O)[C@H]2O[C@@H]2O[C@@H](CO)[C@H](O)[C@@H](O)[C@@H]2NC)[C@@H](N/C(N)=N\[H])[C@@H]1O` [Streptomycin sulphate, streptomycin sulphate], the “antimicrobial activity, Theoretical” value in experiment [1] was found to be 750 UI/MG. Also, the “antimicrobial activity, Effective” value in experiment [1] (18 hours, 32° C., 20 and 5 UI/ml) turned out to be 750 UI/MG. Moreover, in experiment [1] (values in parenthesis), the “antimicrobial activity, Effective (as streptomycin sulphate content)” value came out at 1000 mg/gr and the “antimicrobial activity, Theoretical (as streptomycin sulphate content)” value stood at 1000 mg/gr.
Regarding `[H]/N=C(/N)N[C@H]1[C@H](O)[C@@H](O)[C@H](O[C@@H]2O[C@@H](C)[C@](O)(C=O)[C@H]2O[C@@H]2O[C@@H](CO)[C@H](O)[C@@H](O)[C@@H]2NC)[C@@H](N/C(N)=N\[H])[C@@H]1O` [Streptomycin, streptomycin], the “percentage of eyes which did not present any signs of inflammation” value with pseudomonas aeruginosa (setting [2]) is given as 0.0%; in the experiment with pseudomonas aeruginosa (day 2, pseudomonas aeruginosa), 0.0%; in the experiment on pseudomonas aeruginosa (day 3, pseudomonas aeruginosa), 0.0%; with pseudomonas aeruginosa (day 4, pseudomonas aeruginosa) it was 0.0%; in the experiment with pseudomonas aeruginosa (day 5, pseudomonas aeruginosa), 0.0%; with pseudomonas aeruginosa (day 6, pseudomonas aeruginosa), 16.6%. In addition, the “percentage of eyes which did not present any signs of inflammation” value in the experiment with pseudomonas aeruginosa (day 7, pseudomonas aeruginosa) was determined as 50.0%; in the experiment on pseudomonas aeruginosa (day 8, pseudomonas aeruginosa), 100.0%.
Consider `C[C@]12C=CC(=O)C=C1CC[C@H]1[C@@H]3C[C@@H](O)[C@](O)(C(=O)CO)[C@@]3(C)C[C@H](O)[C@@]12F` [triamcinolone], for which the “Evaluated Score, Conjunctiva” value in the experiment on rabbit eye (0) is 0.0; in the experiment with rabbit eye (1 hour) it was 0.2; with rabbit eye (3 hours) it was 0.0; in the experiment with rabbit eye (24 hours) it was 0.0; in the experiment on rabbit eye (48 hours), 0.0; in the experiment on rabbit eye (3 days), 0.0. Moreover, the “Evaluated Score, Conjunctiva” value in the experiment on rabbit eye (4 days), in the experiment on rabbit eye (5 days) and with rabbit eye (6 days) was 0.0 throughout. Further, the “Evaluated Score, Cornea” value with rabbit eye (0) worked out at 0.0; in the experiment on rabbit eye (1 hour), 1.0; in the experiment on rabbit eye (3 hours), 0.0; in the experiment on rabbit eye (24 hours), 0.1; in the experiment on rabbit eye (48 hours), 0.0; in the experiment on rabbit eye (3 days), 0.0. The “Evaluated Score, Cornea” value in the experiment with rabbit eye (4 days), in the experiment on rabbit eye (5 days) and in the experiment on rabbit eye (6 days) was 0.0 each time. For the same compound, the “Evaluated Score, Iris” value with rabbit eye (0) was found to be 0.0; with rabbit eye (1 hour), 0.5; in the experiment on rabbit eye (3 hours), 2.7; with rabbit eye (24 hours), 3.0; with rabbit eye (48 hours), 3.0; in the experiment with rabbit eye (3 days) it was 3.0. Moreover, the “Evaluated Score, Iris” value in the experiment on rabbit eye (4 days) was 2.4; with rabbit eye (5 days) it was 1.5; in the experiment with rabbit eye (6 days), 0.5. In addition, the “Evaluated Score, Tyndall” value was determined as 0.0 in the experiment on rabbit eye (0); 1.0 in the experiment with rabbit eye (1 hour); 3.0 in the experiment with rabbit eye (3 hours); 3.0 with rabbit eye (24 hours); 3.0 in the experiment with rabbit eye (48 hours); 3.0 with rabbit eye (3 days). Moreover, the “Evaluated Score, Tyndall” value is 2.2 with rabbit eye (4 days), 1.2 with rabbit eye (5 days) and 0.4 in the experiment with rabbit eye (6 days). Besides, the “anti-inflammatory effect (in words)” value in the experiment on rabbit eye (dextran-induced intraocular inflammation) is reported as “almost normal conditions are restored, with perfect limpidness of the eye by the 6th day”.
For the compound gentamicin [Gentamycin], the “percentage of eyes which did not present any signs of inflammation” value in the experiment with pseudomonas aeruginosa (setting [2]) came to 0.0%; in the experiment on pseudomonas aeruginosa (day 2, pseudomonas aeruginosa) it was 0.0%; in the experiment with pseudomonas aeruginosa (day 3, pseudomonas aeruginosa), 0.0%; with pseudomonas aeruginosa (day 4, pseudomonas aeruginosa), 0.0%; in the experiment with pseudomonas aeruginosa (day 5, pseudomonas aeruginosa), 0.0%; in the experiment with pseudomonas aeruginosa (day 6, pseudomonas aeruginosa) it was 33.3%. Besides, the “percentage of eyes which did not present any signs of inflammation” value in the experiment with pseudomonas aeruginosa (day 7, pseudomonas aeruginosa) is 50.0%; in the experiment on pseudomonas aeruginosa (day 8, pseudomonas aeruginosa), 100.0%.
Take neomycin: the “percentage of eyes which did not present any signs of inflammation” value turned out to be 0.0% in the experiment with salmonella typhi (day 1, salmonella typhi, 3 drops every 6 hours, 6 eyes); 0.0% with salmonella typhi (day 2, salmonella typhi); 0.0% in the experiment with salmonella typhi (day 3, salmonella typhi); 0.0% with salmonella typhi (day 4, salmonella typhi); 0.0% in the experiment on salmonella typhi (day 5, salmonella typhi); 0.0% in the experiment on salmonella typhi (day 6, salmonella typhi). The “percentage of eyes which did not present any signs of inflammation” value in the experiment with salmonella typhi (day 7, salmonella typhi) is on record as 16.6%; with salmonella typhi (day 8, salmonella typhi) it was 33.3%.
